{"source": "patent US20110146671A1", "about": "“PHARMACEUTICAL COMPOSITIONS AND METHODS OF DELIVERING THE SAME” (priority 2006, published 2011)", "origin": "cited, not measured here", "test_system": "patients with perennial allergic rhinitis", "settings": "1% solution in normal saline, nasal wash every 48 hours for 4 weeks, versus placebo wash (normal saline only)", "note": "Counter-ions that a name gives are not always drawn.", "data": [{"molecule": "CN[C@@H](C)[C@H](O)c1ccccc1", "note": "[ephedrine hydrochloride]", "values": [{"measurement": "peak nasal inspiratory flow rates", "value": "significant improvement"}, {"measurement": "symptom scores", "value": "significant improvement"}]}]}
